The results in this text go back to ChEMBL document CHEMBL3507680, “University of Dundee, Gates Library screen for HepG2 cell viability”.

The nature of the series: Human HepG2 cell viability assay in 384 well format. The class given is toxicity, cell-based. Set-up: dose 125 nL, time 70.5 hour; concentration not given beside the values. The conditions noted are these: HepG2 cells, read-out: Inhibition.
Take `C=C(C)COc1ccccc1C(=O)NCc1nc(C)cc(=O)[nH]1`: the cytotoxicity at 70.5 h is -11.2%.

Turning to `COc1ccc(OC)c(-c2nc(CN(C)Cc3nonc3C)c(C)o2)c1`, the cytotoxicity at 70.5 h amounted to 26.4%.

For `O=C(CCN1CCCC(CO)(CC2CC2)C1)NC1CCCCC1` (centres undefined), the cytotoxicity at 70.5 h is -25.2%.

With `CC(=O)N1CCCn2nc(CNS(=O)(=O)N(C)C(C)C)cc2C1`, the cytotoxicity at 70.5 h was -14.6%.

For the compound `CCOCc1nc2c(c(NC(CC)c3ccncc3)n1)CCNCC2` (centres undefined), the cytotoxicity at 70.5 h was found to be 1.72%.

`Cc1ccccc1[C@@H]1CN(CCCS(=O)(=O)N(C)C)C[C@H]1C(=O)O`: the cytotoxicity at 70.5 h was determined as 7.05%.

`CN(C)CCCn1ccnc1C1CCCN(c2ncc(Cl)cc2F)C1` (centres undefined): the cytotoxicity at 70.5 h was -2.12%.

For `Cn1ncc2c(N[C@@H]3C[C@@H]4CC[C@H]3C4)nc(-c3ccncc3)nc21`, the cytotoxicity at 70.5 h was -2.05%.

Take `c1cnnc(-c2noc(COCC3CCCO3)n2)c1` (centres undefined): the cytotoxicity at 70.5 h is -3.34%.

On to `CC1(CNS(=O)(=O)c2cccc(C(=O)N3CCSCC3)c2)COC1`, for which the cytotoxicity at 70.5 h was -6.9%.

Turning to `Cc1nc(CC(=O)NCc2csc(N3CCCC3)n2)cs1`, the cytotoxicity at 70.5 h is -4.47%.

On to `CSc1ccc(CN2CCC(CCC(=O)Nc3ccccc3)CC2)cc1`, for which the cytotoxicity at 70.5 h stood at 8.45%.

For the compound `Cc1cc(C2CCC2)nc(N2CC(n3cccn3)C2)n1`, the cytotoxicity at 70.5 h is -4.39%.

In the case of `Cc1nc2ccc(CN3CC4(CCOC4)CCC3=O)cc2[nH]1` (centres undefined), the cytotoxicity at 70.5 h was -1.05%.

With `CCC[C@@H]1CN(Cc2nnc(-c3cccc(F)c3)o2)C[C@H]1NC(C)=O`, the cytotoxicity at 70.5 h is -15.2%.

Regarding `O=C(c1ncc[nH]1)N1CCC(Cn2cc(-c3cccc(Cl)c3)nn2)CC1`, the cytotoxicity at 70.5 h worked out at 20.7%.

Regarding `CCCn1ccnc1CN1CCc2[nH]cnc2C1Cc1ccccc1` (centres undefined), the cytotoxicity at 70.5 h was -4.4%.

As for `N[C@@H]1c2ccccc2C2(CCN(c3cnc4ccccc4n3)CC2)[C@H]1O`, the cytotoxicity at 70.5 h was -9.08%.

`CC(C)=CCN1C(=O)[C@H]2CC[C@@H]1CN(c1ncccc1C(N)=O)C2`: the cytotoxicity at 70.5 h was -9.49%.

Take `CC(C)(CN1CCC2(CCOCC2)CC1)N1CCOCC1`: the cytotoxicity at 70.5 h was found to be 9.42%.

In the case of `CCc1nc(N)nc(N2CCCC3(CN(C)C(=O)O3)C2)c1C` (centres undefined), the cytotoxicity at 70.5 h is -10.4%.

Regarding `CCc1cc(N2C[C@H](C3CC3)[C@@H](N)C2)nc(N2CCOCC2)n1`, the cytotoxicity at 70.5 h was -5.91%.

Consider `c1ccc2c(c1)CC(Cc1cc(N3CCCC3)cnn1)CO2` (centres undefined), for which the cytotoxicity at 70.5 h was -7.55%.

Turning to `O=c1[nH]c(-c2ccccn2)nc2c1CCN(S(=O)(=O)N1CCCC1)C2`, the cytotoxicity at 70.5 h is -3.27%.

As for `CN(C)C(=O)N1CC[C@@H](c2ccc3ccccc3c2)[C@H](O)C1`, the cytotoxicity at 70.5 h was found to be 6.36%.

With `CN1CC2(CCN(C(=O)c3cn4cccnc4n3)CC2)CC1=O`, the cytotoxicity at 70.5 h worked out at 39.7%.

With `CCN1CC2(CCC1=O)CCN(C(=O)c1cn3cccnc3n1)CC2`, the cytotoxicity at 70.5 h stood at 34.9%.

On to `CCn1c(C2CCCN(C(=O)c3ccc[nH]3)C2)nn(CCN(C)C)c1=O` (centres undefined), for which the cytotoxicity at 70.5 h worked out at 4.96%.

For `O=C(NCC(F)(F)F)C(c1cccnc1)N1CCCC1` (centres undefined), the cytotoxicity at 70.5 h is -5.02%.

`CCCC(=O)Nc1ccc(CC(=O)N(CC)CC2CCCCO2)cc1` (centres undefined): the cytotoxicity at 70.5 h stood at 8.7%.

For `Cc1ccc(NCCCNC(=O)C2CCCN(Cc3ccco3)C2)nc1` (centres undefined), the cytotoxicity at 70.5 h turned out to be 7.19%.

Turning to `Cc1nc2c(c(N3CCC(O)(CN4CCCC4)CC3)n1)CCNCC2`, the cytotoxicity at 70.5 h is -3.88%.

In the case of `CC1(C)CNC(=O)c2nc(-c3nnc(-c4ccccc4)[nH]3)[nH]c2C1`, the cytotoxicity at 70.5 h came to 0.339%.

Turning to `COc1ccc(C(CC(=O)NCc2n[nH]c(N)n2)c2ccccc2)cc1` (centres undefined), the cytotoxicity at 70.5 h was -4.65%.

Take `CCc1csc(CCNC(=O)CC2CCN(C(C)C)CC2)n1`: the cytotoxicity at 70.5 h was 23%.

With `CCn1c(CN(C)C)nnc1C1CCN(Cc2ccc(Cl)c(F)c2)CC1`, the cytotoxicity at 70.5 h was -6.05%.

Consider `CN1CCC(Cc2noc(-c3cccc(OCC(N)=O)c3)n2)CC1`, for which the cytotoxicity at 70.5 h amounted to 7.49%.

Take `CNc1nc(N2CCN(Cc3ccsc3)C(CCO)C2)nc2c1CCC2` (centres undefined): the cytotoxicity at 70.5 h was -1.63%.

On to `CC(=O)N[C@H]1CN(S(=O)(=O)N(C)Cc2ccccc2)C[C@@H]1C1CC1`, for which the cytotoxicity at 70.5 h is -2.36%.

As to `CCn1cc(S(=O)(=O)NC2CCCN(CC3CCCCC3)C2)cn1` (centres undefined), the cytotoxicity at 70.5 h turned out to be 15.9%.

Take `Cc1cc(C)n(C2CN(c3nc(N)nc4c3CCCC4)C2)n1`: the cytotoxicity at 70.5 h was -16.5%.

Turning to `c1ccc(CN2CCC(Nc3ncnc4c3CCNCC4)C2)cc1` (centres undefined), the cytotoxicity at 70.5 h is -4.37%.

Consider `COc1ccc(-c2ccc(C(=O)N3CCC[C@@H]3CO)o2)cc1`, for which the cytotoxicity at 70.5 h was -13.9%.

In the case of `Cc1ccc(-n2c(COC(C)C)n[nH]c2=O)cc1`, the cytotoxicity at 70.5 h is -2.37%.

For the compound `Fc1ccccc1Cc1noc(CN2CCC(C3CCCCC3)C2)n1` (centres undefined), the cytotoxicity at 70.5 h turned out to be 34.7%.

As for `CCOc1ccc(CN2CCN(CCOC)[C@@H]3CS(=O)(=O)C[C@@H]32)cc1`, the cytotoxicity at 70.5 h came out at 5.04%.

Regarding `CC(C)(C)c1nc(CN2CCc3onc(-c4cccc(F)c4)c3C2)no1`, the cytotoxicity at 70.5 h was -12.1%.

Consider `Cc1cc(NC(=O)Cn2ccc(-c3ccc4c(c3)OCO4)n2)n(C)n1`, for which the cytotoxicity at 70.5 h was -13.2%.

Regarding `COc1cc(F)c(C(=O)NCc2cc(C)on2)c(F)c1`, the cytotoxicity at 70.5 h is -6.54%.

For the compound `O=C(CCc1cc2n(n1)CCCNC2)N1CCSCC1`, the cytotoxicity at 70.5 h was -9.8%.

On to `CC(C)c1nc(N2CCC(N3CCCC(O)C3)CC2)c2cnn(C)c2n1` (centres undefined), for which the cytotoxicity at 70.5 h was 1.93%.

In the case of `CC(C)c1nc(N2CCC(N3CCSCC3)CC2)c2cnn(C)c2n1`, the cytotoxicity at 70.5 h is -2.43%.

For the compound `CSCCC1c2nc[nH]c2CCN1Cc1ccccc1C#N` (centres undefined), the cytotoxicity at 70.5 h is -6.75%.

As to `Nc1ccncc1-n1cc(CCO)cn1`, the cytotoxicity at 70.5 h came out at 1.11%.

`CCNC(=O)C1CCN(Cc2ccc(C(=O)Nc3nnc(C)s3)cc2)C1` (centres undefined): the cytotoxicity at 70.5 h came to 26.3%.

As to `CNc1nc(C(=O)N2CCn3nc(C(=O)OC)cc3C2)cs1`, the cytotoxicity at 70.5 h was -4.4%.

For the compound `Cc1nc(CCN)cc(N(C)Cc2nc3ccc(F)cc3[nH]2)n1`, the cytotoxicity at 70.5 h was determined as 0.172%.

`COCc1cc(N2CCN(c3ccc(Cl)cn3)CC2)n2nccc2n1`: the cytotoxicity at 70.5 h is -0.783%.

Regarding `O=C1OCCN1CC(=O)N1C[C@H]2CC[C@@H]1CN(C(=O)c1ccccn1)C2`, the cytotoxicity at 70.5 h is -7.06%.

`Cc1nc2c(c(N3CCCC(CO)C3)n1)CCN(Cc1ccco1)CC2` (centres undefined): the cytotoxicity at 70.5 h is 16.9%.

Take `CSc1cccc(CN(C)C(=O)Cn2ncc(N(C)C)cc2=O)c1`: the cytotoxicity at 70.5 h is -3.4%.

In the case of `COCCC1(CO)CCCN(C(=O)c2cc(=O)[nH]c(=O)[nH]2)C1` (centres undefined), the cytotoxicity at 70.5 h is -8.57%.

With `O=C(O)[C@]12CN(CC3CCC3)C[C@H]1CN(c1cnccn1)C2`, the cytotoxicity at 70.5 h is -4.33%.

Turning to `Cc1cc2occ(CC(=O)N3CCC(O)(CN(C)C)C3)c2cc1Cl` (centres undefined), the cytotoxicity at 70.5 h is -5.39%.

With `C[C@@H]1CN(CCC(=O)NCc2ccccc2Cl)C[C@@]1(O)C1CC1`, the cytotoxicity at 70.5 h was -2.59%.

`COc1ccc(Cn2cc(C(=O)N(C)CCN(C)C)nn2)cc1`: the cytotoxicity at 70.5 h is -15%.

For the compound `Cc1c(Cl)cc(C(=O)NCCc2ncnn2C)cc1Cl`, the cytotoxicity at 70.5 h is -9.97%.

Regarding `Cc1cc(C)c(C(=O)N2CCC3(CCCN(CC(C)(C)C)C3)C2)[nH]1` (centres undefined), the cytotoxicity at 70.5 h was 15.2%.

As for `CNC(=O)c1ccc(CN(C(C)C)C(C)C)o1`, the cytotoxicity at 70.5 h was -4.83%.
